Results: ChEMBL document CHEMBL2069304, “Indole alkaloids from two cultured cyanobacteria, Westiellopsis sp. and Fischerella muscicola” (Bioorg Med Chem, 2012)
≈ marks a conversion by molar mass, not a printed value. Calls of active or inactive are those of the source. No cut-off for these calls is given here.

Tests used:
[1] = test system: Mycobacterium tuberculosis; experiment: microbe, parasite or virus in culture; settings: H37Rv
Description: Antimicrobial activity against Mycobacterium tuberculosis H37Rv by microplate Alamar blue assay

[2] = test system: Candida albicans; experiment: Antimicrobial activity against Candida albicans by broth microdilution assay; type: functional
[3] = test system: Staphylococcus aureus; experiment: Antimicrobial activity against Staphylococcus aureus by broth microdilution assay; type: functional
[4] = test system: Mycolicibacterium smegmatis; experiment: Antimicrobial activity against Mycobacterium smegmatis by broth microdilution assay; type: functional
[5] = test system: Vero; experiment: Cytotoxicity against african green monkey Vero cells by CellTiter 96 aqueous nonradioactive cell proliferation assay; type: cell-based; settings: Chlorocebus sabaeus
[6] = test system: Acinetobacter baumannii; experiment: Antimicrobial activity against Acinetobacter baumannii by broth microdilution assay; type: functional
[7] = test system: Escherichia coli; experiment: Antimicrobial activity against Escherichia coli by broth microdilution assay; type: functional
[8] = test system: NCI-H460; experiment: Cytotoxicity against human NCI-H460 cells incubated for 3 days by SRB assay; type: functional, cell-based; settings: NCI-H460, 72 h
[9] = test system: IMR-90; experiment: Cytotoxicity against human IMR90 cells incubated for 3 days by SRB assay; type: cell-based; settings: IMR-90, 72 h
[10] = test system: MCF7; experiment: Cytotoxicity against human MCF7 cells incubated for 3 days by SRB assay; type: functional, cell-based; settings: MCF7, 72 h
[11] = test system: SF-268; experiment: Cytotoxicity against human SF268 cells incubated for 3 days by SRB assay; type: functional, cell-based; settings: SF-268, 72 h
[12] = test system: HT-29; experiment: Cytotoxicity against human HT-29 cells by CellTiter 96 Aqueous One solution cell proliferation assay; type: functional, cell-based
[13] = species on record: Homo sapiens; experiment: Inhibition of 20S proteasome at 25 ug/ml
[14] = Homo sapiens, HT-29, read-out: IC50

Row | Molecule | MIC [1] [µM] | MIC [2] [µM] | MIC [3] [µM] | MIC [4] [µM] | IC50 [5] [µM] | MIC [6] [µM] | MIC [7] [µM] | IC50 [8] [µM] | IC50 [9] [µM] | IC50 [10] [µM] | IC50 [11] [µM] | IC50 [12, 14] [µM] | inhibition [13] | IC50 ([12]; ht-29)
1 | CCCCCC#CC#C/C=C/CCCC[C@H]1C[C@@H](C)C(=O)N1 [FISCHERELLIN B] | 23 (≈ 6.89 µg/mL) | > 100 | > 100 | > 100 | > 100 | > 100 | > 100 | – | – | – | – | – | – | –
2 | [C-]#[N+][C@H]1C(=C)[C@@H](C=C)C[C@@H]2[C@@H]1c1c[nH]c3cccc(c13)C2(C)C (relative stereo) | 2.5 (≈ 0.756 µg/mL) | 2.5 (≈ 0.756 µg/mL) | 9.1 (≈ 2.75 µg/mL) | 78.8 (≈ 23.8 µg/mL) | – | > 100 | > 100 | 23 | 113 | 35.4 | 23.5 | 24.8 | – | –
3 | C[C@H]1c2cccc(O)c2C(=O)C2=C(O)[C@]3(O)C(=O)C(C(N)=O)=C(O)[C@@H](N(C)C)[C@@H]3[C@@H](O)[C@@H]21 [DOXYCYCLINE] | – | – | – | – | – | 0.35 (≈ 0.156 µg/mL) | – | – | – | – | – | – | – | –
4 | CC1(C)S[C@@H]2[C@H](NC(=O)[C@H](N)c3ccccc3)C(=O)N2[C@H]1C(=O)O [AMPICILLIN] | – | – | 1.54 (≈ 0.538 µg/mL) | – | – | – | – | – | – | – | – | – | – | –
5 | [C-]#[N+][C@@H]1[C@H]2c3c([nH]c4ccccc34)C(C)(C)[C@H]2C[C@@H](Cl)[C@@]1(C)C=C [FISCHERINDOLE L] | 22 (≈ 7.46 µg/mL) | 1.2 (≈ 0.407 µg/mL) | 6.4 (≈ 2.17 µg/mL) | 63 (≈ 21.3 µg/mL) | < 9.2 | > 100 | > 100 | 15.1 | 46.3 | 28.3 | 17.4 | – | – | –
6 | [C-]#[N+][C@@H]1C2=C3C(=O)Nc4cccc(c43)C(C)(C)[C@H]2C[C@@H](Cl)[C@]1(C)C=C [ANHYDROHAPALOXINDOLE A] | 16.2 (≈ 5.72 µg/mL) | 1.9 (≈ 0.67 µg/mL) | 27.3 (≈ 9.63 µg/mL) | > 100 | – | > 100 | > 100 | 18.7 | 80.1 | 56.7 | 26 | – | – | –
7 | CN[C@@H]1[C@H](O[C@H]2[C@H](O[C@H]3[C@H](O)[C@@H](O)[C@H](N=C(N)N)[C@@H](O)[C@@H]3N=C(N)N)O[C@@H](C)[C@]2(O)C=O)O[C@@H](CO)[C@H](O)[C@H]1O [STREPTOMYCIN] | – | – | – | 0.41 (≈ 0.238 µg/mL) | – | – | – | – | – | – | – | – | – | –
8 | GENTAMICIN | – | – | – | – | – | – | 2.3 | – | – | – | – | – | – | –
9 | C[C@@H]1[C@H](O)[C@@H](C)/C=C/C=C/C=C/C=C/C=C/C=C/C=C/[C@H](O[C@@H]2O[C@H](C)[C@@H](O)[C@H](N)[C@@H]2O)C[C@@H]2O[C@](O)(C[C@@H](O)C[C@@H](O)[C@H](O)CC[C@@H](O)C[C@@H](O)CC(=O)O[C@H]1C)C[C@H](O)[C@H]2C(=O)O [AMPHOTERICIN B] | – | 0.12 (≈ 0.111 µg/mL) | – | – | – | – | – | – | – | – | – | – | – | –
10 | [C-]#[N+][C@@H]1[C@H]2c3c[nH]c4cccc(c34)C(C)(C)[C@@H]2CC[C@]1(C)C=C [HAPALINDOLE H] | – | – | – | – | – | – | – | 8.5 | 31.9 | 16.3 | 10.6 | – | – | –
11 | CC[C@@]1(O)C(=O)OCc2c1cc1n(c2=O)Cc2cc3ccccc3nc2-1 [CAMPTOTHECIN] | – | – | – | – | – | – | – | 0.002 | 0.43 | 0.08 | 0.07 | – | – | –
12 | [C-]#[N+][C@@H]1[C@@H]2c3c[nH]c4cccc(c34)C(C)(C)[C@H]2CC[C@]1(C)C=C [HAPALINDOLE U] | – | – | – | – | – | – | – | > 100 | > 100 | > 100 | > 100 | 52.6 | – | –
13 | [C-]#[N+][C@@H]1[C@H]2c3c[nH]c4cccc(c34)C(C)(C)[C@H]2C[C@@H](Cl)[C@]1(C)C=C [HAPALINDOLE A] | < 0.6 | 1.2 (≈ 0.407 µg/mL) | 3.9 (≈ 1.32 µg/mL) | 18.2 (≈ 6.17 µg/mL) | 25.6 | > 100 | 8 (≈ 2.71 µg/mL) | 17 | 39.1 | 30.7 | 16.3 | – | – | –
14 | [C-]#[N+]C1=C2c3c[nH]c4cccc(c34)C(C)(C)[C@H]2CC[C@]1(C)C=C (relative stereo) | > 100 | > 100 | > 100 | > 100 | > 100 | > 100 | > 100 | – | – | – | – | – | – | –
15 | CO[C@H]1/C=C/O[C@@]2(C)Oc3c(C)c(O)c4c(O)c(c(/C=N/N5CCN(C)CC5)c(O)c4c3C2=O)NC(=O)/C(C)=C\C=C\[C@H](C)[C@H](O)[C@@H](C)[C@@H](O)[C@@H](C)[C@H](OC(C)=O)[C@@H]1C [RIFAMPIN] | 0.24 (≈ 0.198 µg/mL) | – | – | – | – | – | – | – | – | – | – | – | – | –
16 | [C-]#[N+][C@@H]1[C@H]2c3c[nH]c4cccc(c34)C(C)(C)[C@H]2CC[C@]1(C)C=C [HAPALINDOLE J] | 4.3 (≈ 1.31 µg/mL) | 0.7 (≈ 0.213 µg/mL) | 8.4 (≈ 2.56 µg/mL) | 39 (≈ 11.9 µg/mL) | – | > 100 | > 100 | 12 | 39.1 | 43.7 | 16.9 | 28.6 | – | –
17 | [C-]#[N+][C@@H]1[C@H](c2c[nH]c3ccccc23)[C@@H](C(=C)C)CC[C@]1(C)C=C [HAPALINDOLE C] | – | – | – | – | – | – | – | 53.7 | > 100 | > 100 | 88.6 | – | inactive | –
18 | C=C[C@]1(C)CC2C(=O)c3c(NC=O)cccc3C(C)(C)[C@H]2C[C@H]1O (relative stereo) | > 100 | > 100 | > 100 | > 100 | > 100 | > 100 | > 100 | > 100 | > 100 | > 100 | > 100 | – | – | Not Active
19 | [C-]#[N+]C1=C2c3c[nH]c4cccc(c34)C(C)(C)[C@H]2C[C@@H](Cl)[C@]1(C)C=C [HAPALINDOLE I] | 2 (≈ 0.674 µg/mL) | > 100 | > 100 | > 100 | > 100 | > 100 | > 100 | 68.5 | > 100 | > 100 | 93.1 | – | – | Not Active
